Measurements as given in EP1435231B1, “Non-pegylated long-circulating liposomes” (Bharat Serums & Vaccines Ltd., priority 2002, dated 2004).

Experiments:
[1] = tested on: Dogs; assay: Subacute toxicity in dogs; conditions: dog, in vivo
Excerpt: • clinical signs of toxicity, • body weight, • haemodynamic parameters, • haematology and • biochemical parameters TABLE 7

[2] = Pharmacokinetic study of doxorubicin formulations in mice (plasma, HPLC); parameters: species or system Swiss albino mice; conditions: mouse, in vivo, 10 mg/kg
Procedure: Blood samples after collection were centrifuged at 4000 rpm for 20 min and the plasma was separated and frozen at -20°C until analysed. The frozen plasma was thawed and used for analysis.
1ml of acetonitrile was added to 100 µL of plasma, vortexed for 10 min, centrifuged at 3250 rpm for 10 min. The supernatant was withdrawn and 0.5ml of saturated ZnSO4 solution was added to it. The resulting solution was vortexed for 5 min and then centrifuged for 10 min at 3250 rpm. The upper organic layer was then withdrawn and dried under oxygen free nitrogen gas at 60°C. The residue obtained was then reconstituted with 200µL of Solvent A containing ZnSO4. 100 µL of this solution was then injected in the HPLC column.
Student's t-test was used for comparison between the three formulations.

[3] = tested on: drug resistant (Pgp+) DLD-1 human colon tumour; assay: Efficacy in nude athymic mice implanted with multidrug resistant, Pgp positive DLD-1 tumour xenografts; conditions: mouse, in vivo
Procedure: Animals, nude athymic mice, 4 mice/group (10 in Control group) implanted subcutaneously with human DLD-1 colon tumour via trocar implant.
All agents were administered to nude athymic mice i.v. via tail vein on day 5 and 12 after s.c. tumour implant with the multidrug resistant, Pgp positive, human colon tumour xenograft.

## Adriamycin^®
[1]
  Liver Function Test: aspartate aminotranferase, alanine aminotranferase and total bilirubin levels: Increase
  creatinine phosphokinase and lactate dehydrogenase levels: Increase
[1]; 1 mg/kg
  Body weight: decrease in the bodyweight
  Haemodynamic Parameters: Heart rate: Increases by average + 29.17%
  Haemodynamic Parameters: Respiratory rate: Decreases by average -42.12%
[2]
  Cl: 200.96 mL/h
  Kel: 4.852
[3]
  MTD relative to that of the liposomal formulations: about half
